Results published in US7618816B2, “Metal-binding therapeutic peptides” (Ontherix, Inc., priority 2005, dated 2009).

Legend:
Test in all cases: Uptake of SA-HRP::MBD peptide complexes
435 = assay type: cell-based
Experimental: (§1) HEK293 kidney cell line and 54 tumor cell lines obtained from the National Cancer Institute and passaged in RPMI1640 cell culture medium supplemented with 10% fetal bovine serum and 10 uM FeCl2. Uptake of streptavidin-horseradish peroxidase (SA-HRP) conjugate and of various SA-HRP::MBD peptide complexes was determined as described (Singh et al. J Biol Chem. 279 (1):477-87 [2004]) using biotinylated MBD9 ([…]) (SEQ ID NO: 10) and MBD21 ([…]) (SEQ ID NO: 4) peptides and SA-HRP. Nuclear and cytoplasmic localization of these proteins was also determined in each case. […] In order to establish the underlying molecular mechanism for this variability, we cross-linked MBD21 peptide to the following cell surface markers at 4 degrees Celsius as previously described (Singh et al. J Biol Chem. 279 (1):477-87 [2004]): transferrin receptor 1, caveolin 1, PCNA, integrins alpha v, 2, 5 and 6, integrins beta 1, 3 and 5. […] Based on the strength of these correlations, it was possible to derive crude predictive formulae for MBD-mediated uptake based on the rate of cross-linking to surface markers. Such predictive formulas could form the basis for a diagnostic procedure to select appropriate targets for MBD-based therapies.

CCRF-SB = assay type: cell-based
Experimental: as §1

COLON 26 = assay type: cell-based
Experimental: as §1

HEK 293 = assay type: cell-based
Experimental: as §1

K562 = assay type: cell-based
Experimental: as §1

PAN 02 = assay type: cell-based
Experimental: as §1

SR = assay type: cell-based
Experimental: as §1

231 = assay type: cell-based, human
Experimental: as §1

A2780 = assay type: cell-based, human
Experimental: as §1

A704 = assay type: cell-based, human
Experimental: as §1

ACHN = assay type: cell-based, human
Experimental: as §1

CAKI-1 = assay type: cell-based, human
Experimental: as §1

CCRF-CEM = assay type: cell-based, human
Experimental: as §1

CHA-59 = assay type: cell-based, human
Experimental: as §1

DU-145 = assay type: cell-based, human
Experimental: as §1

HCT-15 = assay type: cell-based, human
Experimental: as §1

HOP 18 = assay type: cell-based, human
Experimental: as §1

HOP 62 = assay type: cell-based, human
Experimental: as §1

HOP 92 = assay type: cell-based, human
Experimental: as §1

HS-578T = assay type: cell-based, human
Experimental: as §1

HT-29 = assay type: cell-based, human
Experimental: as §1

KM12 = assay type: cell-based, human
Experimental: as §1

LOVO = assay type: cell-based, human
Experimental: as §1

MOLT4 = assay type: cell-based, human
Experimental: as §1

NCI-H460 = assay type: cell-based, human
Experimental: as §1

NCI-H522 = assay type: cell-based, human
Experimental: as §1

OVCAR-4 = assay type: cell-based, human
Experimental: as §1

OVCAR-8 = assay type: cell-based, human
Experimental: as §1

PC-3 = assay type: cell-based, human
Experimental: as §1

SHP-77 = assay type: cell-based, human
Experimental: as §1

SN12C = assay type: cell-based, human
Experimental: as §1

TK-10 = assay type: cell-based, human
Experimental: as §1

WIDR = assay type: cell-based, human
Experimental: as §1

## KKGFYKKKKQCRPSKGRKRGFCWNGRK [MBD9]
435; 435, cytoplasmic
  SA-HRP uptake, Cyt.: 8.6 ng
435; 435, nuclear
  SA-HRP uptake, Nuc.: 2.7 ng
CCRF-SB; cytoplasmic
  SA-HRP uptake, Cyt.: 2.6 ng
CCRF-SB; nuclear
  SA-HRP uptake, Nuc.: 0.6 ng
COLON 26; COLON 26, cytoplasmic
  SA-HRP uptake, Cyt.: 11.3 ng
COLON 26; COLON 26, nuclear
  SA-HRP uptake, Nuc.: 2.3 ng
HEK 293; HEK 293, cytoplasmic
  SA-HRP uptake, Cyt.: 20.2 ng
HEK 293; HEK 293, nuclear
  SA-HRP uptake, Nuc.: 20.1 ng
K562; K562, cytoplasmic
  SA-HRP uptake, Cyt.: 2.6 ng
K562; K562, nuclear
  SA-HRP uptake, Nuc.: 1.3 ng
PAN 02; PAN 02, cytoplasmic
  SA-HRP uptake, Cyt.: 25.8 ng
PAN 02; PAN 02, nuclear
  SA-HRP uptake, Nuc.: 7.0 ng
SR; cytoplasmic
  SA-HRP uptake, Cyt.: 24.4 ng
SR; nuclear
  SA-HRP uptake, Nuc.: 0.0 ng
231; 231, cytoplasmic
  SA-HRP uptake, Cyt.: 9.6 ng
231; 231, nuclear
  SA-HRP uptake, Nuc.: 2.6 ng
A2780; A2780, cytoplasmic
  SA-HRP uptake, Cyt.: 20.7 ng
A2780; A2780, nuclear
  SA-HRP uptake, Nuc.: 2.8 ng
A704; A704, cytoplasmic
  SA-HRP uptake, Cyt.: 10.9 ng
A704; A704, nuclear
  SA-HRP uptake, Nuc.: 1.8 ng
ACHN; cytoplasmic
  SA-HRP uptake, Cyt.: 9.6 ng
ACHN; nuclear
  SA-HRP uptake, Nuc.: 2.9 ng
CAKI-1; CAKI-1, cytoplasmic
  SA-HRP uptake, Cyt.: 7.4 ng
CAKI-1; CAKI-1, nuclear
  SA-HRP uptake, Nuc.: 1.8 ng
CCRF-CEM; cytoplasmic
  SA-HRP uptake, Cyt.: 46.2 ng
CCRF-CEM; nuclear
  SA-HRP uptake, Nuc.: 1.8 ng
CHA-59; CHA-59, cytoplasmic
  SA-HRP uptake, Cyt.: 24.7 ng
CHA-59; CHA-59, nuclear
  SA-HRP uptake, Nuc.: 9.7 ng
DU-145; DU-145, cytoplasmic
  SA-HRP uptake, Cyt.: 3.1 ng
DU-145; DU-145, nuclear
  SA-HRP uptake, Nuc.: <0.04 ng
HCT-15; HCT-15, cytoplasmic
  SA-HRP uptake, Cyt.: 4.0 ng
HCT-15; HCT-15, nuclear
  SA-HRP uptake, Nuc.: 0.8 ng
HOP 18; HOP 18, cytoplasmic
  SA-HRP uptake, Cyt.: 16.6 ng
HOP 18; HOP 18, nuclear
  SA-HRP uptake, Nuc.: 8.1 ng
HOP 62; HOP 62, cytoplasmic
  SA-HRP uptake, Cyt.: 12.0 ng
HOP 62; HOP 62, nuclear
  SA-HRP uptake, Nuc.: 0.9 ng
HOP 92; HOP 92, cytoplasmic
  SA-HRP uptake, Cyt.: 2.5 ng
HOP 92; HOP 92, nuclear
  SA-HRP uptake, Nuc.: 1.6 ng
HS-578T; cytoplasmic
  SA-HRP uptake, Cyt.: 6.8 ng
HS-578T; nuclear
  SA-HRP uptake, Nuc.: 2.3 ng
HT-29; HT-29, cytoplasmic
  SA-HRP uptake, Cyt.: 6.1 ng
HT-29; HT-29, nuclear
  SA-HRP uptake, Nuc.: 7.7 ng
KM12; KM12, cytoplasmic
  SA-HRP uptake, Cyt.: 3.6 ng
KM12; KM12, nuclear
  SA-HRP uptake, Nuc.: 1.0 ng
LOVO; cytoplasmic
  SA-HRP uptake, Cyt.: 12.6 ng
LOVO; nuclear
  SA-HRP uptake, Nuc.: 5.4 ng
MOLT4; MOLT4, cytoplasmic
  SA-HRP uptake, Cyt.: 12.7 ng
MOLT4; MOLT4, nuclear
  SA-HRP uptake, Nuc.: 0.0 ng
NCI-H460; NCI-H460, cytoplasmic
  SA-HRP uptake, Cyt.: 30.3 ng
NCI-H460; NCI-H460, nuclear
  SA-HRP uptake, Nuc.: 5.6 ng
NCI-H522; NCI-H522, cytoplasmic
  SA-HRP uptake, Cyt.: 9.1 ng
NCI-H522; NCI-H522, nuclear
  SA-HRP uptake, Nuc.: 3.7 ng
OVCAR-4; OVCAR-4, cytoplasmic
  SA-HRP uptake, Cyt.: 9.9 ng
OVCAR-4; OVCAR-4, nuclear
  SA-HRP uptake, Nuc.: 2.7 ng
OVCAR-8; OVCAR-8, cytoplasmic
  SA-HRP uptake, Cyt.: 3.9 ng
OVCAR-8; OVCAR-8, nuclear
  SA-HRP uptake, Nuc.: 5.0 ng
PC-3; PC-3, cytoplasmic
  SA-HRP uptake, Cyt.: 23.2 ng
PC-3; PC-3, nuclear
  SA-HRP uptake, Nuc.: 8.5 ng
SHP-77; SHP-77, cytoplasmic
  SA-HRP uptake, Cyt.: 12.8 ng
SHP-77; SHP-77, nuclear
  SA-HRP uptake, Nuc.: 5.9 ng
SN12C; cytoplasmic
  SA-HRP uptake, Cyt.: 10.6 ng
SN12C; nuclear
  SA-HRP uptake, Nuc.: 3.5 ng
TK-10; TK-10, cytoplasmic
  SA-HRP uptake, Cyt.: 4.0 ng
TK-10; TK-10, nuclear
  SA-HRP uptake, Nuc.: 1.3 ng
WIDR; cytoplasmic
  SA-HRP uptake, Cyt.: 3.4 ng
WIDR; nuclear
  SA-HRP uptake, Nuc.: 0.7 ng
